Columns and labels:
[1] = tested on: patients with type 2 diabetes mellitus; test: Phase 2a trial, HbA1c (glycemic control); format: in vivo, human; conditions: for Visit 1 HbA1c mean: Visit 1 (Day 1, before first dose, baseline); for HbA1c Change vs Baseline mean / Visit 3 HbA1c mean: 14 daily doses; for Visit 3 HbA1c mean: Visit 3 (Day 15)
Experimental: (§1) Five (5) dose groups were studied.
(§2) The first dose of the study drug was given on Day 1 at 2200 h. Activity markers measured on Day 1 prior to administration of the drug (“Visit 1”). The last dose of study drug was given on Day 14 at 2200 h and activity markers measured on Day 15 (“Visit 3”). Measurements of safety markers were taken on Visits 1 and 3, as well as Visit 2 (Day 8) and Visit 4 (Day 28).
This test measure levels of glycated hemoglobin and reflects the average blood glucose level for a subject over the preceding 3 months (approximately). Elevated levels are common in diabetics. Lowering the hemoglobin A1c number can delay or prevent the development of serious eye, kidney, and nerve disease in individuals with diabetes.

[2] = tested on: patients with type 2 diabetes mellitus; test: Phase 2a trial, continuous blood pressure monitoring; format: in vivo, human; conditions: Visits 1 and 3, 14 daily doses
Experimental: as §1
Continuous blood pressure monitoring was performed during Visits 1 and 3.

[3] = molecular target: T1, 14a-lanosterol demethylase (Rattus norvegicus, UniProt Q64654); conditions: compared with the other (2R,4S) enantiomer; Rotstein et al. 1992; cited from earlier work
T1 sequence (Q64654 1-503): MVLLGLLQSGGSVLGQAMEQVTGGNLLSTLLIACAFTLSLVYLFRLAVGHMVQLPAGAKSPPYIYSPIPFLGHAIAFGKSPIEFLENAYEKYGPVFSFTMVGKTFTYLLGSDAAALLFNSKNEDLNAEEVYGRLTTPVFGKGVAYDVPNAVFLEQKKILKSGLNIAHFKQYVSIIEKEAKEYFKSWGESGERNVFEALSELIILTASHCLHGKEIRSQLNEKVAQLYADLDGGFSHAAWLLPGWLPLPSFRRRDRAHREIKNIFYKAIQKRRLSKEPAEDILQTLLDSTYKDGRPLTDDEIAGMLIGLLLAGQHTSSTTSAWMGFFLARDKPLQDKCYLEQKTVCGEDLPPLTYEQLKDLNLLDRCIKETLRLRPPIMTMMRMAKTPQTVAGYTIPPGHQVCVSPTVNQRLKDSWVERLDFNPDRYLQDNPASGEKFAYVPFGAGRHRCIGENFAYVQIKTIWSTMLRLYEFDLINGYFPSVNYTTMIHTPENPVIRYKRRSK

[4] = tested on: patients with type 2 diabetes mellitus; test: Phase 2a trial, total cholesterol; format: in vivo, human; conditions: for Total cholesterol Visit 1 mean: Visit 1 (baseline, before first dose); for Total cholesterol Change mean / Total cholesterol Mean % change / Total cholesterol Visit 3 mean: 14 daily doses; for Total cholesterol Visit 3 mean: Visit 3 (Day 15)
Experimental: as §1, §2

[5] = tested on: patients with type 2 diabetes mellitus; test: Phase 2a trial, fructosamine (glycemic control); format: in vivo, human; conditions: for Fructosamine Visit 1 mean: Visit 1 (baseline, before first dose); for Fructosamine Change vs Baseline mean / Fructosamine Visit 3 mean: 14 daily doses; for Fructosamine Visit 3 mean: Visit 3 (Day 15)
Experimental: as §1, §2
Fructosamine levels were measured at baseline and after two weeks of therapy (see Table 4 and FIGS. 1 and 2). […] Fructosamine levels reflect blood glucose levels over the preceding 2-3 weeks.

[6] = tested on: patients with type 2 diabetes mellitus; test: Phase 2a trial, liver function tests (AST/ALT/AP)
Experimental: as §2

[7] = tested on: patients with type 2 diabetes mellitus; test: Phase 2a trial, C-reactive protein (marker of inflammation); format: in vivo, human; conditions: for C-Reactive Protein (CRP) Visit 1 mean: Visit 1 (baseline, before first dose); for C-Reactive Protein (CRP) Visit 3 mean: Visit 3 (Day 15)
Experimental: as §1, §2

[8] = plasma; Beagle dogs, racemic ketoconazole 30 mg/dog intravenous bolus
Experimental: The pharmacokinetics of each of the ketoconazole enantiomers was studied following intravenous administration of racemic ketoconazole. Racemic ketoconazolewas dissolved in ethanol to 60 mg/ml. Each of three Beagle dogs was administered 0.5 ml bolus (30 mg/dog) intravenously.
Blood was collected from each dog prior to dosing (“0 min”) and at 2, 5, 10, 15, 30 min, and 1, 2, 4, 6, 8, and 24 hrs post-dosing. At each timepoint, blood (0.3 mL/sample) was collected and placed into labeled Microtainer® tubes with heparin as the anti-coagulant. The heparinized blood was centrifuged, and the supernatant pipetted off into another set of labeled Eppendorf® tubes. The derived plasma samples were analyzed for each of the two ketoconazole enantiomers (2S,4R and 2R,4S) and pharmacokinetic parameters determined for each of the enantiomers.

[9] = tested on: patients with type 2 diabetes mellitus; test: Phase 2a trial, LDL cholesterol; format: in vivo, human; conditions: for LDL cholesterol Visit 1 mean: Visit 1 (baseline, before first dose); for LDL cholesterol Mean % change / LDL cholesterol change mean / LDL cholesterol Visit 3 mean: 14 daily doses; for LDL cholesterol Visit 3 mean: Visit 3 (Day 15)
Experimental: as §1, §2

[10] = tested on: patients with type 2 diabetes mellitus; test: Phase 2a trial, fasting glucose; conditions: two weeks of treatment
Excerpt: The secondary objective was to determine the pharmacokinetic (PK) profile in plasma of the 2S,4R enantiomer after a single dosing and after fourteen daily doses. In addition the pharmacodynamic activity of fourteen daily doses of the 2S,4R enantiomer, as reflected by changes in blood pressure, total and LDL cholesterol, CRP, plasma and salivary cortisol, cortisol binding globulin, measures of glycemic control (fructosamine, HbA1c and fasting blood glucose levels).
Five (5) dose groups were studied. The dose groups are as follows (N=subjects who completed the study):

[11] = Subject 02-002, 200 mg DIO-902, Screening Visit
[12] = Subject 02-002, 200 mg DIO-902, Visit 1 (pre-1st dose)
[13] = Subject 02-002, 200 mg DIO-902, Visit 2
[14] = Subject 02-002, 200 mg DIO-902, Visit 3 (last dose)
[15] = Subject 04-004, 400 mg DIO-902, Screening Visit
[16] = Subject 04-004, 400 mg DIO-902, Visit 1 (pre-1st dose)
[17] = Subject 04-004, 400 mg DIO-902, Visit 2
[18] = Subject 04-004, 400 mg DIO-902, Visit 3 (last dose)
[19] = Subject 04-010, 400 mg DIO-902, Screening Visit
[20] = Subject 04-010, 400 mg DIO-902, Visit 1 (pre-1st dose)
[21] = Subject 04-010, 400 mg DIO-902, Visit 2
[22] = Subject 04-010, 400 mg DIO-902, Visit 3 (last dose)

2S,4R ketoconazole [DIO-902]
Visit 1 HbA1c mean ([1]; 200 mg po QD group): 8.18%
HbA1c Change vs Baseline mean ([1]; 200 mg po QD): −0.32%
Visit 3 HbA1c mean ([1]; 200 mg po QD): 7.86%
Visit 1 HbA1c mean ([1]; 400 mg po QD group): 7.88%
HbA1c Change vs Baseline mean ([1]; 400 mg po QD): −0.18%
Visit 3 HbA1c mean ([1]; 400 mg po QD): 7.70%
Visit 1 HbA1c mean ([1]; 600 mg po QD group): 9.10%
HbA1c Change vs Baseline mean ([1]; 600 mg po QD): −0.47%
Visit 3 HbA1c mean ([1]; 600 mg po QD): 8.63%
effect on HbA1c ([1]; administration for 14 days): trends toward a reduction
effect on blood pressure readings [2]: no reductions
activity against 14a-lanosterol demethylase [3]: more active
Total cholesterol Visit 1 mean ([4]; 200 mg po QD group): 227.20 mg/dL
Total cholesterol Change mean ([4]; 200 mg po QD): -26.10 mg/dL
Total cholesterol Mean % change ([4]; 200 mg po QD): −11.66%
Total cholesterol Visit 3 mean ([4]; 200 mg po QD): 202.45 mg/dL
Total cholesterol Visit 1 mean ([4]; 400 mg po QD group): 224.50 mg/dL
Total cholesterol Change mean ([4]; 400 mg po QD): -34.00 mg/dL
Total cholesterol Mean % change ([4]; 400 mg po QD): −15.35%
Total cholesterol Visit 3 mean ([4]; 400 mg po QD): 190.50 mg/dL
Total cholesterol Visit 1 mean ([4]; 600 mg po QD group): 195.33 mg/dL
Total cholesterol Change mean ([4]; 600 mg po QD): -48.75 mg/dL
Total cholesterol Mean % change ([4]; 600 mg po QD): −29.97%
Total cholesterol Visit 3 mean ([4]; 600 mg po QD): 130.33 mg/dL
effect on total cholesterol ([4]; two-week administration): Statistically significant, dose dependent decreases
Fructosamine Visit 1 mean ([5]; 200 mg po QD group): 262 µmol/L
Fructosamine Change vs Baseline mean ([5]; 200 mg po QD): -12.20 µmol/L
Fructosamine Visit 3 mean ([5]; 200 mg po QD): 249.80 µmol/L
Fructosamine Visit 1 mean ([5]; 400 mg po QD group): 271.00 µmol/L
Fructosamine Change vs Baseline mean ([5]; 400 mg po QD): -8.33 µmol/L
Fructosamine Visit 3 mean ([5]; 400 mg po QD): 262.67 µmol/L
Fructosamine Visit 1 mean ([5]; 600 mg po QD group): 276.33 µmol/L
Fructosamine Change vs Baseline mean ([5]; 600 mg po QD): -29.33 µmol/L
Fructosamine Visit 3 mean ([5]; 600 mg po QD): 247.00 µmol/L
effect on fructosamine ([5]; administration for 14 days): trends toward a reduction
evidence of hepatotoxicity ([6]; 14 daily doses): not observed
ALT [6, 11]: 30 u/L
AP [6, 11]: 110 u/L
AST [6, 11]: 58 u/L
ALT [6, 12]: 22 u/L
AP [6, 12]: 100 u/L
AST [6, 12]: 34 u/L
ALT [6, 13]: 21 u/L
AP [6, 13]: 103 u/L
AST [6, 13]: 30 u/L
ALT [6, 14]: 19 u/L
AP [6, 14]: 97 u/L
AST [6, 14]: 35 u/L
ALT [6, 15]: 25 u/L
AP [6, 15]: 132 u/L
AST [6, 15]: 48 u/L
ALT [6, 16]: 25 u/L
AP [6, 16]: 108 u/L
AST [6, 16]: 49 u/L
ALT [6, 17]: 28 u/L
AP [6, 17]: 125 u/L
AST [6, 17]: 49 u/L
ALT [6, 18]: 25 u/L
AP [6, 18]: 130 u/L
AST [6, 18]: 46 u/L
ALT [6, 19]: 27 u/L
AP [6, 19]: 73 u/L
AST [6, 19]: 49 u/L
ALT [6, 20]: 24 u/L
AP [6, 20]: 60 u/L
AST [6, 20]: 48 u/L
ALT [6, 21]: 14 u/L
AP [6, 21]: 82 u/L
AST [6, 21]: 40 u/L
ALT [6, 22]: 19 u/L
AP [6, 22]: 64 u/L
AST [6, 22]: 38 u/L
liver function test values outside the normal range at baseline (hepato-protection, words) ([6]; two patients): normalized
C-Reactive Protein (CRP) Visit 1 mean ([7]; 200 mg po QD group): 6.91 mg/L
CRP Mean % change vs baseline ([7]; 200 mg po QD, 14 daily doses): −19.8%
C-Reactive Protein (CRP) Visit 3 mean ([7]; 200 mg po QD, 14 daily doses): 4.78 mg/L
C-Reactive Protein (CRP) Visit 1 mean ([7]; 400 mg po QD group): 4.02 mg/L
CRP Mean % change vs baseline ([7]; 400 mg po QD, 14 daily doses): −27.35%
C-Reactive Protein (CRP) Visit 3 mean ([7]; 400 mg po QD, 14 daily doses): 2.95 mg/L
C-Reactive Protein (CRP) Visit 1 mean ([7]; 600 mg po QD group): 8.35 mg/L
CRP Mean % change vs baseline ([7]; 600 mg po QD, 14 daily doses): −48.64%
C-Reactive Protein (CRP) Visit 3 mean ([7]; 600 mg po QD, 14 daily doses): 5.05 mg/L
effect on CRP ([7]; 14 daily doses): dose-dependent decrease
clearance [8]: 8.08 mL/min/kg
terminal half life [8]: 1.397 h
LDL cholesterol Visit 1 mean ([9]; 200 mg po QD group): 141.60 mg/dL
LDL cholesterol Mean % change ([9]; 200 mg po QD): −11.39%
LDL cholesterol change mean ([9]; 200 mg po QD): -17.20 mg/dL
LDL cholesterol Visit 3 mean ([9]; 200 mg po QD): 124.40 mg/dL
LDL cholesterol Visit 1 mean ([9]; 400 mg po QD group): 133.33 mg/dL
LDL cholesterol Mean % change ([9]; 400 mg po QD): −27.44%
LDL cholesterol change mean ([9]; 400 mg po QD): -35.50 mg/dL
LDL cholesterol Visit 3 mean ([9]; 400 mg po QD): 97.83 mg/dL
LDL cholesterol Visit 1 mean ([9]; 600 mg po QD group): 125.67 mg/dL
LDL cholesterol Mean % change ([9]; 600 mg po QD): −42.14%
LDL cholesterol change mean ([9]; 600 mg po QD): -41.25 mg/dL
LDL cholesterol Visit 3 mean ([9]; 600 mg po QD): 70.67 mg/dL
effect on LDL-C ([9]; two-week administration): Statistically significant, dose dependent decreases
Reductions in fasting glucose levels [10]: up to 15 mg/dL

From patent US9198906B2, “Ketoconazole enantiomer in humans” (Cortendo AB (publ), priority 2006, dated 2015)
